Source: patent publication US10858351B2, “Substituted tetrahydropyridine derivatives as IDO-1 inhibitors and uses thereof” (Alberta Research Chemicals Inc., priority 2017, dated 2020)

How the values were obtained:
Format in all cases: cell-based
Human IDO-1 [1] = biological target: T1, Human IDO-1 (Homo sapiens, UniProt P14902); assay: HEK Human IDO-1 cells, Basal N-formyl-kynurenine readout; settings: Primary CRC, read-out: Basal_N-formyl-kyn IDO1 Rel IC50
Protocol: (§1) Compounds described in the Examples above were tested for inhibition of IDO activity with IDO Kynurenine Assay with Human ID01/HEK293 Cells.
(§2) Human ID01/HEK293 cells were seeded at 10,000 cells per 50 μL per well with RP Ml/phenol red free media containing 10% FBS in a 384-well black wall clear bottom tissue culture plate (Matrix Technologies LLC). 125 nL of certain concentration of compound was then added to each well using ECHO liquid handling systems. The cells were incubated for 20 hours in 37° C. incubator with 5% CO2.

Human IDO-1 [2] = biological target: T1, Human IDO-1; assay: IDO Kynurenine Assay with Human IDO1/HEK293 cells (Basal L-Kynurenine readout); settings: HEK Human IDO-1; for inhibition at 10 µM: HEK293, Primary SP, 10 μM compound, read-out: Basal_L-Kynurenine (IDO1 % inhib @ 10 μM); for IC50: Primary CRC, read-out: Basal_L-Kynurenine IDO1 Rel IC50
Protocol: as §1, §2
The compound treatments were stopped by adding trichloroacetic acid (Sigma-Aldrich) to a final concentration at 0.2%. The cell plate was further incubated at 50° C. for 30 minute. The equal volume supernatant (20 μL) and 0.2% (w/v) Ehrlich reagent (4-dimethylaminobenzaldehyde, Sigma-Aldrich) in glacial acetic acid were mixed in a new clear bottom 384-well plate. This plate was then incubated at room temperature for 30 minute. The absorbance at 490 nm was measured on Envision plate reader.

Human ID01/HEK293 cells = assay: HEK Human IDO-1 cells, Basal Viability; settings: Primary CRC, HEK Human IDO-1 cell viability, read-out: Basal_Viability Rel IC50
Protocol: as §2

T1 sequence (P14902 whole entry): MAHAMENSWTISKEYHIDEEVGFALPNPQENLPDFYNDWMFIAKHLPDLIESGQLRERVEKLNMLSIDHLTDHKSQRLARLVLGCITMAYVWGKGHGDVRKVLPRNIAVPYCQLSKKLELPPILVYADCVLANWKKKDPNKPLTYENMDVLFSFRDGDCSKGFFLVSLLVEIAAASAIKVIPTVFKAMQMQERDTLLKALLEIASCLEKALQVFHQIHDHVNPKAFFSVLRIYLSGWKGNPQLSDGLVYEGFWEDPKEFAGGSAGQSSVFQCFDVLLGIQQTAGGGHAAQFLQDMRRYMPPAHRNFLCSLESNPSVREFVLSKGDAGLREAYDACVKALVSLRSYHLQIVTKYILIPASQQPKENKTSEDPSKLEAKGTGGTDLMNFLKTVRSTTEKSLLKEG

SMILES | IC50 (Human IDO-1 [1]) [nM] | inhibition at 10 µM (Human IDO-1 [2]) [%] | IC50 (Human IDO-1 [2]) [nM] | IC50 (Human ID01/HEK293 cells) [nM]
CN1CCN(c2cccc(C3=CCN(Cc4cccc(NC(=O)NC5CCCCC5)c4)CC3)n2)CC1 [Example 8, 1-Cyclohexyl-3-{3-[6-(4-methyl-piperazin-1-yl)-3′,6′-dihydro-2′H-[2,4′]bipyridinyl-1′-ylmethyl]-phenyl}-urea] | > 2000 | < 90 | > 2000 | > 50000
CCNC(=O)Nc1cccc(CN2CC=C(c3cccc(N4CCN(C)CC4)n3)CC2)c1 [Example 7, 1-Ethyl-3-{3-[6-(4-methyl-piperazin-1-yl)-3′,6′-dihydro-2′H-[2,4′]bipyridinyl-1′-ylmethyl]-phenyl}-urea] | > 2000 | < 90 | > 2000 | > 50000
CCNC(=O)Nc1cccc(CN2CC=C(c3cccc(N4CCOCC4)n3)CC2)c1 [Example 1, 1-Ethyl-3-[3-(6-morpholin-4-yl-3′,6′-dihydro-2′H-[2,4′]bipyridinyl-1′-ylmethyl)phenyl]urea] | < 2000 | > 90 | < 2000 | > 50000
CCNC(=O)Nc1cccc(CN2CC=C(c3cccc(N4CCCCC4)n3)CC2)c1 [Example 4, 1-Ethyl-3-[3-(6-piperidine-1-yl-3′,6′-dihydro-2′H-[2,4′]bipyridinyl-1′-ylmethyl)-phenyl]-urea] | < 2000 | > 90 | < 2000 | > 50000
O=C(Nc1cccc(CN2CC=C(c3cccc(N4CCCCC4)n3)CC2)c1)NC1CCCCC1 [Example 5, 1-Cyclohexyl-3-[3-(6-piperidine-1-yl-3′,6′-dihydro-2′H-[2,4′]bipyridinyl-1′-ylmethyl)-phenyl]-urea] | < 2000 | > 90 | < 2000 | > 50000
CN1CCN(c2cccc(C3=CCN(Cc4cccc(NC(=O)NC5CC5)c4)CC3)n2)CC1 [Example 9, 1-Cyclopropyl-3-{3-[6-(4-methyl-piperazin-1-yl)-3′,6′-dihydro-2′H-[2,4′]bipyridinyl-1′-ylmethyl]-phenyl}-urea] | > 2000 | < 90 | > 2000 | > 50000
O=C(Nc1cccc(CN2CC=C(c3cccc(N4CCOCC4)n3)CC2)c1)NC1CCCCC1 [Example 2, 1-Cyclohexyl-3-[3-(6-morpholin-4-yl-3′,6′-dihydro-2′H-[2,4′]bipyridinyl-1′-ylmethyl)-phenyl]-urea] | < 2000 | > 90 | < 2000 | > 50000
O=C(Nc1cccc(CN2CC=C(c3cccc(N4CCCCC4)n3)CC2)c1)NC1CC1 [Example 6, 1-Cyclopropyl-3-[3-(6-piperidin-1-yl-3′,6′-dihydro-2′H-[2,4′]bipyridinyl-1′-ylmethyl)-phenyl]-urea] | < 2000 | > 90 | < 2000 | > 50000
